Here are results for eight compounds from patent publication US7736909B2, “Methods and compositions comprising capture agents” (Board of Regents, the University of Texas System, priority 2003, dated 2010).

One series addresses ubiquitin (Homo sapiens, UniProt P0CG47). Kind of series: pull-down of unlabeled ubiquitin by Tentagel-displayed peptide, probed with Texas Red-labeled anti-ubiquitin antibody. The series is classed as binding. Particulars: semi-quantitative. The protocol: To study the behavior of the ubiquitin-targeted chimeric binding element in capture assays, the peptide was synthesized on Tentagel and employed in “pull-down” assays. Beads displaying NH2-[…], a control peptide NH2-[…], or no peptide at all, were incubated with the indicated concentration of unlabeled ubiquitin in the presence of a 1000-fold excess of E. coli proteins (FIG. 26B). After thorough washing, the beads were then probed with Texas Red-labeled anti-ubiquitin-labeled polyclonal antibodies to visualize the bound protein. […] In all cases, the level of fluorescence from the chimeric binding element-displaying beads was much higher than from either set of control beads (see FIG. 26C for a direct comparison).

Series [1] deals with T1, MBP-Mdm2 (UniProt P0AEX9+Q00987).
T1 construct: The domain of the human Mdm2 protein represented by residues 1-188 is a structurally characterized monomer; made in house; host or cells: E. coli BL21-RIL
Kind of series: isothermal titration calorimetry (ITC). Format: binding, human. On the procedure:
(§1) Isothermal titration calorimetry (ITC). ITC experiments were conducted on a MicroCal VP-ITC instrument. For the titration, 70 μM MBP-hmdm2 or 30 μM GST in PBS+10% DMSO was taken in the sample cell. To this, 15 μl aliquots of the peptoid solution in the same buffer were added from a computer-controlled 250 μl rotating syringe. The syringe was set at 400 rpm with intervals of 3 minutes between injections to attain baseline stabilization. The heat absorbed or released accompanying the titration was recorded as differential power (DP) by the instrument software. Experiments were carried out with C values between 1 and 400. The total heat recorded was then fitted via a non-linear least-squares minimization method. Titration of the ligand solution with the buffer alone gave the heats of dilution. Titration with MBP alone was recorded under identical conditions.
(ITC needs no label: the signal is the heat of the interaction.)

The next series has as its target T2, GST (Schistosoma japonicum, UniProt P08515).
T2 construct: made in house; host or cells: E. coli BL21-RIL
Kind of series: isothermal titration calorimetry (ITC). The series is classed as binding. Particulars: in solution; read-out: equilibrium dissociation constant, ITC. On the procedure:
as §1

In series [2] the target is T1, MBP-Mdm2. The series is classed as binding, human. On the procedure: Five milligrams of TentaGel beads (displaying the respective hit sequences, Nlys-Nbsa-Nlys-Nser-Nbsa-Npip-Nbsa-Npip-CONH2 and Nbsa-Nlys-Nbsa-Npip-Nlys-CONH2 or a random sequence Npip-Nser-Nbsa-Nall-Nlys-Npip-CONH2) were equilibrated in phosphate-buffered saline (PBS) for 60 minutes. The buffer was removed and the beads were blocked with 2% BSA for 60 minutes to saturate any non-specific binding sites. The beads were then washed with PBS (3 times), and incubated with 500 nM (unless indicated otherwise) of a Texas Red-labeled protein (MBP-MDM2 or GST) in 2% BSA (in 1×TBST buffer), in a 300 μL volume for 60 minutes. The beads were washed with TBST six times to remove any unbound protein and photographed under a fluorescence microscope. Studies that employed native (unlabeled) proteins were performed as follows. Ten milligrams of beads displaying the peptoid were exposed to 1 μM protein in the presence of 1000-fold excess E. coli lysate, 0.2% Tween-20 and 0.2 M NaCl in a total volume of 2 ml at RT for 2 hrs. The beads were washed three times with TBST (20 mM Tris buffered saline+0.1% Tween-20). Ten microliters of 2×SDS-PAGE loading dye was then added directly to these beads and they were boiled for 10 mins.
To probe the binding chemistry of chimeric binding ligand formula 2 on a solid support, which is more relevant to the issue of creating high affinity protein capture agents, TentaGel beads were prepared that display either chalcone formula 1 alone, the 10 mer peptoid NH2-Nlys-Npip-Nlys-Nser-Nlys-Nlys-Nlys-Nlys-Npip-Npip alone, or the chalcone-peptoid chimeric binding element of formula 2. In the experiment shown in FIG. 24D, the beads and the Texas Red-labeled proteins (100 nM) indicated in the figure were incubated under demanding buffer conditions (1M NaCl and 1% Tween-20 in the presence of a 100-fold excess of E. coli proteins), then washed thoroughly. Two populations of beads were then mixed in a 1:1 ratio and photographed under a fluorescence microscope to provide a direct comparison.
After thorough washing, the beads were photographed in the fluorescence microscope using identical settings in each case.

Another series addresses MBP (Escherichia coli, UniProt P0AEX9). Kind of series: isothermal titration calorimetry (ITC), MBP alone. The series is classed as binding. The conditions noted are these: in solution. On the procedure: as §1
For the next series, the target named is T3, His6Gal80 (Saccharomyces cerevisiae, UniProt P04387).
T3 construct: His6 (N); made in house; host or cells: E. coli
T3 sequence (P04387 1-435): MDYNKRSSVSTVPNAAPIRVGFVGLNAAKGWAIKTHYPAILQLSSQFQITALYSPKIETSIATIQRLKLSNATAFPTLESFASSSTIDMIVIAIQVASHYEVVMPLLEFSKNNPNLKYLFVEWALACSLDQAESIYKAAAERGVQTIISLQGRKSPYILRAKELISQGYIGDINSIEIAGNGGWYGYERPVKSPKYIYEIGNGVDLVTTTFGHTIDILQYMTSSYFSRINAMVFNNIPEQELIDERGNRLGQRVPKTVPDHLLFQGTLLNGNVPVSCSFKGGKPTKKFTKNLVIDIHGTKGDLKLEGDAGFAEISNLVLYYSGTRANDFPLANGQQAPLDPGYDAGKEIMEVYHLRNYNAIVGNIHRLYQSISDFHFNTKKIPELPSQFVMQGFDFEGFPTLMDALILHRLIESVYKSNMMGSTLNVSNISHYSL
Kind of series: lysate experiment: specificity of capture from E. coli lysate (silver stain). The series is classed as binding. The conditions noted are these: Gal80 5% of total protein, silver staining. On the procedure:
Lysate Experiment. E. coli lysate was prepared by growing BL21 cells to an OD600 of 0.8. Cells were lysed by sonication in PBS buffer. After sonication, triton X-100 was added to 1%. His6Gal80 was doped into the E. coli lysate (67 μg/mL) such that it constituted 5% of the total protein. Approximately 0.02 g of Tentagel beads on which the Gal80-binding peptide had been synthesized and deprotected were added to 300 μL of the E. coli lysate containing His6Gal80 and incubated for 2 hours at 4° C. The beads were washed four times for ten minutes each time at 4 with PBS buffer+1% triton X-100 at 150 mM NaCl at 4° C. and then twice with PBS buffer. GSTGal4 AD (activation domain) was pre-incubated with glutathione sepharose beads and then used as a positive control to pull-down His6Gal80 from the lysate under the same conditions. Gel loading dye was added directly to the beads, loaded onto a SDS polyacrylamide gel and analyzed by silver stain.
To address this point, the Gal80 bp/Gal80 pair was again employed. His6Gal80 was doped into an E. coli lysate such that Gal80 represented 5% of the total protein concentration. This solution was then incubated with the Tentagel-bound Gal80 bp followed by thorough washing to remove any unbound material. The composition of the proteins captured by the peptide was then addressed by SDS-PAGE followed by silver staining. […]

A further series can be described thus: solubility observations. Format: physicochemical.

Read-outs that look alike come from different tables or passages of the source. Non-standard residues stand in square brackets, D forms with d. Residues, ends and D or L forms follow the SMILES beside them. N(4-Sulfamoylphenethyl)Gly = NS(=O)(=O)c1ccc(CCNCC(=O)O)cc1; Gly(N-piperonyl) = O=C(O)CNCc1ccc2c(c1)OCO2; Gly(N-CH2CH2OH) = O=C(O)CNCCO; Nlys = NCCCCNCC(=O)O

T1 sequence (Q00987 whole entry, looked up, other chains not shown, the tested form may be a part): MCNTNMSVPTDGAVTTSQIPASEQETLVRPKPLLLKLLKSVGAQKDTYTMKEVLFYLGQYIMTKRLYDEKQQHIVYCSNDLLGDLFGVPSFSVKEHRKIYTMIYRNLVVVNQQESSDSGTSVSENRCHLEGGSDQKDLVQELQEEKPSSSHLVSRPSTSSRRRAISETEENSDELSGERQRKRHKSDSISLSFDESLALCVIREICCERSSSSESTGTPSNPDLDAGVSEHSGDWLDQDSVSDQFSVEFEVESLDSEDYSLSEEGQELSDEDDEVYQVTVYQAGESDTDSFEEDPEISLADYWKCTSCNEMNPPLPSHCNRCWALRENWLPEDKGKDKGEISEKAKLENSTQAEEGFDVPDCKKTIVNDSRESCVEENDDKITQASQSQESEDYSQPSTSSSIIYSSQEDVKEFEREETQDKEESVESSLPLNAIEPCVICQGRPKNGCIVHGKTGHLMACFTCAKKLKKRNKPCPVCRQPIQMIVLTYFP
T2 sequence (P08515 whole entry): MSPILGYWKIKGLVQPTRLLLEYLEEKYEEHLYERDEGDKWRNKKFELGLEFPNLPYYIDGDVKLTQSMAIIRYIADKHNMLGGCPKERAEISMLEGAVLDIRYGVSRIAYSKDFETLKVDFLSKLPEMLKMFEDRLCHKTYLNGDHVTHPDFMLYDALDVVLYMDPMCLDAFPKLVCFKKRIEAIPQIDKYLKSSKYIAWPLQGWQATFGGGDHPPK

For the compound `CC(C)C[C@H](NC(=O)CNC(=O)[C@@H](N)Cc1c[nH]c2ccccc12)C(=O)N[C@@H](CCCNC(=N)N)C(=O)N[C@@H](C)C(=O)N[C@@H](CC(C)C)C(=O)N[C@@H](CCC(=O)O)C(=O)N[C@@H](CO)C(=O)N[C@@H](CCCNC(=N)N)C(=O)N[C@@H](Cc1c[nH]c2ccccc12)C(=O)N[C@@H](CC(=O)O)C(=O)N[C@@H](CCCNC(=N)N)C(=O)N[C@@H](Cc1ccc(O)cc1)C(=O)N[C@@H](Cc1ccc(O)cc1)C(=O)N[C@@H](Cc1ccccc1)C(=O)O` (H-WGLRALESRWDRYYF-OH; C-terminus assumed), the “functional dissociation constant of immobilized chimeric binding element” value at ubiquitin is “at least in the low nanomolar range”. Take `NCCCCNCC(=O)N(CC(=O)N(CCCCN)CC(=O)N(CCO)CC(=O)N(CCCCN)CC(=O)N(CCCCN)CC(=O)N(CCCCN)CC(=O)N(CCCCN)CC(=O)N(CC(=O)N(CC(N)=O)Cc1ccc2c(c1)OCO2)Cc1ccc2c(c1)OCO2)Cc1ccc2c(c1)OCO2` [NH2-Nlys-Npip-Nlys-Nser-Nlys-Nlys-Nlys-Nlys-Npip-Npip] (H-[Nlys][Gly(N-piperonyl)][Nlys][Gly(N-CH2CH2OH)][Nlys][Nlys][Nlys][Nlys][Gly(N-piperonyl)][Gly(N-piperonyl)]-NH2; N-terminus and C-terminus assumed): the Kd at MBP-Mdm2 [1] worked out at 378 µM. Turning to `NCCCCN(CC(N)=O)C(=O)CN(Cc1ccc2c(c1)OCO2)C(=O)CN(CCc1ccc(S(N)(=O)=O)cc1)C(=O)CN(CCCCN)C(=O)CNCCc1ccc(S(N)(=O)=O)cc1` [Nbsa-Nlys-Nbsa-Npip-Nlys-CONH2] (H-[N(4-Sulfamoylphenethyl)Gly][Nlys][N(4-Sulfamoylphenethyl)Gly][Gly(N-piperonyl)][Nlys]-NH2), the Kd on GST amounted to 62 µM. In the case of `NCCCCNCC(=O)N(CCc1ccc(S(N)(=O)=O)cc1)CC(=O)N(CCCCN)CC(=O)N(CCO)CC(=O)N(CCc1ccc(S(N)(=O)=O)cc1)CC(=O)N(CC(=O)N(CCc1ccc(S(N)(=O)=O)cc1)CC(=O)N(CC(N)=O)Cc1ccc2c(c1)OCO2)Cc1ccc2c(c1)OCO2` [Nlys-Nbsa-Nlys-Nser-Nbsa-Npip-Nbsa-Npip] (H-[Nlys][N(4-Sulfamoylphenethyl)Gly][Nlys][Gly(N-CH2CH2OH)][N(4-Sulfamoylphenethyl)Gly][Gly(N-piperonyl)][N(4-Sulfamoylphenethyl)Gly][Gly(N-piperonyl)]-NH2), the “MBP-Mdm2 protein retained by immobilized peptoid” value on MBP-Mdm2 [2] (native protein 1 μM, 1000-fold excess E. coli proteins, Western blot) is on record as “about 10%”. Also, the Kd is 37 µM at MBP-Mdm2 [1] and more than 1 mM at MBP. As to DLQRDTNKGFHEMFDWDYQN [Ga180bpscram], the “proteins retained from Gal80-doped E. coli lysate” value in the series with His6Gal80 is given as “No detectable proteins were retained”.

Consider “NH2-Lys(Chalcone)-Nlys-Npip-Nlys-Nser-Nlys-Nlys-Nlys-Nlys-Npip-Npip [formula 2]”, for which, at MBP-Mdm2 [2] (100 nM protein, 1M NaCl, 1% Tween-20, 100-fold excess E. coli proteins), the “solid phase MBP-Mdm2 affinity relative to components” value is “higher affinity for Mdm2 than does either individual component of the chimera”. Besides, the “lowest protein concentration at which capture of Mdm2 was apparent” value at MBP-Mdm2 [2] (150 mM NaCl, 0.1% detergent, 100-fold excess E. coli proteins) is recorded as 10 nM. Moreover, the Kd on MBP-Mdm2 [1] (in solution, read-out: equilibrium dissociation constant (KD), ITC) is 1.3 µM; at MBP, more than 6 mM. Besides, the “improvement in affinity relative to parent compound formula 1” value on MBP-Mdm2 [1] (solution, ITC) was “at least 170 fold”. In the case of “Nmba-Nbsa-Nleu-Nlys-Npip-Nmba-Nleu-Nleu [random peptoid, reference compound]”, on MBP-Mdm2 [2] (1000-fold excess E. coli proteins, Western blot), the “native MBP-Mdm2 retained” value is on record as “No detectable MBP-Mdm2 protein was retained”.

Take “PREbp: Pre1 binding peptide isolated by phage display, free synthetic peptide before six polar amino acids were added (SHSTARGEQERAAVYLWFTYDHRSER)”: the solubility result in “solubility observations” is reported as “insoluble”.
